# Measurements from US20130123618A1, “Imaging Agents” (priority 2008, published 2013).
# Key:
# Format in all cases: cell-based
# [1] = test system: tumor cells; assay: overall conclusion of uptake studies in cancer cells in vitro
# Description: In the in vitro studies the uptake rate of each amino acid compound is measured in each tumor line, as well as the dominant transport mechanisms of each tumor cell line. After trypsinization, cells are resuspended in serum-free media, then counted on a hemocytometer, with viability assessed through Trypan blue staining. Approximately 1×10^7 cells are exposed to each compound (15 μCi) in 15 ml of amino acid free media for 5, 10, 15, 30 and 60 minutes at 37° C. Cells are then centrifuged at 150×g for 5 minutes, rinsed in 5 ml cold-saline, recentrifuged, resuspended in 3 ml saline, and placed into 12×75 mm glass vials (Fisher, Pittsburgh, Pa.). The vials are placed in a Cobra-II gamma counter (Packard, Meriden, Conn.), with the activity per cell number determined. Inhibition studies determine the dominant transport mechanism (L, A or ASC) for each line [Martarello et al. (2002) supra; McConathy et al. (2003) supra]. For these studies, cells are exposed to the compounds for 30 minutes in amino acid free media containing one of three inhibitors (2-amino-norbornyl-2-carboxylic acid (BCH), 10 mM; α-(methylamino)-isobutyric acid (MeAlB), 10 mM; and an alanine-serine-cysteine mixture 1:1:1 (acs), 10 mM). Saline washes are performed as described above, and the filtered cells' radioactivity determined on the gamma counter. Comparisons with the 30 minute control uptake indicate the major transporters used. Results of these studies are found in FIGS. 1-18.
# Approximately 10^6 cells were exposed to the [^18F]amino acid candidate (5 μCi) in 3 ml of amino acid-free media±transporter inhibitors (10 mM) for 30 minutes under incubation conditions by the method previously described (McConathy, J.; Martarello, L.; Malveaux, E.; Camp, V.; Bowers, G.; Olson, J.; Goodman, M. (2002) Radiolabeled amino acids for tumor imaging with PET: radiosynthesis and biological evaluation of [^18F]2-amino-3-fluoro-2-methylpropanoic acid and [^18F]3-fluoro-2-methyl-2-(methylamino)-propanoic acid. J. Med. Chem. 45, 2240-2249). The inhibition studies determined the dominant transport mechanism (L, A) for each candidate PET amino acid for each tumor model. 2-Methylaminoisobutyric acid (MeAlB) and 2-aminobicyclo-[2.2.1]-heptane-2-carboxylic acid (BCH) serve as inhibitors for the “A”, “L” transport systems, respectively.
# [2] = test system: MIA PaCa-2 Human Pancreas carcinoma cells; assay: in vitro amino acid uptake in MIA PaCa-2 cells
# Description: (§1) Compounds have been evaluated in vitro for tumor binding specificity (i.e. uptake cells) using a variety of tumor cell lines available in the art, along with reference compounds such as Me-AlB and BCH. Detailed description of these assays can be found in Martarello et al. (2002) Journal of Medicinal Chemistry, 45:2250-2259 and McConathy et al. (2003) Nuclear Medicine and Biology, 30:477-490. […]
# (§2) In the in vitro studies the uptake rate of each amino acid compound is measured in each tumor line, as well as the dominant transport mechanisms of each tumor cell line. After trypsinization, cells are resuspended in serum-free media, then counted on a hemocytometer, with viability assessed through Trypan blue staining. […] The vials are placed in a Cobra-II gamma counter (Packard, Meriden, Conn.), with the activity per cell number determined. […] Saline washes are performed as described above, and the filtered cells' radioactivity determined on the gamma counter. […]
# (§3) The uptake of all compounds were measured in human and rat cancer cell lines and the dominant transport (“A” and “L”) mechanism of each culture were determined. […]
# [3] = test system: MDA MB231 Human Breast carcinoma cells; assay: in vitro amino acid uptake in MDA MB231 cells
# Description: as §1, §2, §3
# [4] = test system: LnCap Human Prostate carcinoma cells; assay: in vitro amino acid uptake in LnCap cells
# Description: as §1, §2, §3
Compound,selective uptake in tumor cells [1],% Dose uptake per 0.5 × 10−6 Cells [2] [% Dose/0.5 × 10^−6],% Dose uptake per 0.5 × 10−6 Cells [3] [% Dose/0.5 × 10^−6],% Dose uptake per 0.5 × 10−6 Cells [4] [% Dose/0.5 × 10^−6],in vitro uptake in cancer cells compared with enantiomer 2 ([1]; in vitro in cancer cells)
NC1(C(=O)O)CCC1[18F] (racemic) [racemic anti-2-[^18F]FACBC],selectively taken up in tumor cells,,,,
"N[C@]1(C(=O)O)CCC[C@@H]1[18F] (single isomer, unassigned; enantiomer 1) [Enantiomer 1, anti-2-[^18F]FACPC]",selectively taken up in tumor cells,6.8,9.1,6.5,greater uptake than enantiomer 2
